According to patent US9096528B2, “2-aminonicotinic acid ester derivative and bactericide containing same as active ingredient” (AGRO-KANESHO CO., LTD., priority 2012, dated 2015):

Test system: Botrytis cinerea
Experiment: Test on Botrytis cinerea (gray mold) of a cucumber
Assay type: in vivo
Settings: 25 ppm; cut cucumber cotyledons inoculated with spore suspension; 20° C. for 72 hours; from lesion diameter vs non-treatment region
Description: A cucumber plant (a plant variety: “Sagami Han-shiro”) of 12 days after seeding was prepared for the test. Parts of cotyledons of the cucumber plant were cut out with leaving about 2 cm of its rachis. Apart from this, a plastic case with a size of 32 cm×24 cm×4.5 cm (length×width×height), at the bottom of which a paper towel sufficiently moistened with water was laid, and on the paper towel a mesh with legs was placed, was prepared. On the mesh, the above-described cut-out parts of cotyledons were placed such that leaves were horizontal. To the central part of each of the cotyledons, 50 μl of a spore suspension (1×10^6 spores/ml) of Botrytis cinerea of a cucumber was added dropwise. Thereafter, each of cotyledons was covered with a paper disc with a diameter of 6 mm. Apart from this, an emulsion prepared according to the above Preparation Example 1 was diluted with an aqueous solution of 0.02% Tween 20 in demineralized water to prepare a diluent of a predetermined concentration. 50 μl of the diluent was dropped on each paper disc. The plastic case was lidded and was placed under the condition of 20° C. for 72 hours, and then the diameter of each lesion was measured and the controlling rate for Botrytis cinerea (gray mold) of a cucumber was calculated according to the following equation. […]

CCOc1cccc(Oc2ccc(CNC(=O)c3cccnc3N)cc2)c1 [A]
Controlling rate (%): 54%
